Data: patent EP2607478A1, “Phenanthroline treated MSC” (Universiteit Twente, priority 2011, dated 2013)
“Also recorded” adds a separate entry of the source.

System: MSCs
Assay: Whole genome expression analysis (Illumina microarray) of treated MSCs
Format: cell-based, Human
Description: MSCs were seeded in T25 flasks at 5000 cells/cm^2 and allowed to attach overnight in proliferation medium. […] After 48 hours, RNA was isolated as described above. From 500 ng of RNA, cRNA was synthesized using the Illumina TotalPrep RNA amplification Kit (Ambion), according to the manufacturer's protocol and the quality of RNA and cRNA was verified on a Bioanalyzer 2100 (Agilent). Microarrays were performed using Illumina HT-12 v4 expression Beadchips, according to the manufacturer's protocol. Briefly, 750 ng of cRNA was hybridized on the array overnight after which the array was washed and blocked. Then, by addition of streptavidin Cy-3 a fluorescent signal was developed. Arrays were scanned on an Illumina iScan reader and raw intensity values were background corrected in GenomeStudio (Illumina). Further data processing and statistical testing were performed with R and Bioconductor statistical software (www.bioconductor.org), using package lumi. Raw intensity values were transformed using variance stabilization and a quantile normalization was performed. A linear modelling approach with empirical Bayesian methods, as implemented in Limma package (54), was applied for differential expression analysis of the resulting probe-level expression values. A gene list, containing only those genes with an absolute 1.5-fold change between different treatments, was uploaded to Ingenuity Pathway Analysis (IPA) software and used for core analysis. Pathways or networks with a p-value of 0.05 were considered statistically significant.

In the case of `c1cnc2c(c1)ccc1cccnc12` [PHE, 1, 10-phenanthroline], the “interleukin-8 (Il-8) gene expression” value (MSCs treated for two days, 150 µM DFO or 200 µM PHE) is reported as “highly induced”, the “expression of HRE-containing genes (metabolism, cell growth and survival, endothelial genes)” value (MSCs treated for two days, 150 µM DFO or 200 µM PHE, relative to basic medium) is reported as “most genes were strongest induced; also recorded: markedly induced higher expression” and the “expression of RelA” value (PHE compared to hypoxia or DFO-treated cells) is reported as “higher”. For the same compound, the “expression of P300” value (PHE-treated cells) was “higher expression”, the “logFC(D142_PHE - D142_BAS) BNIP3L” value (ProbeID ILMN 2045419) was 2,33 and the “logFC(D142_PHE - D142_BAS) CYTH2” value (ProbeID ILMN 3188106) was 2,19. For the same compound, the “logFC(D142_PHE - D142_BAS) HIST1H2BD” value (ProbeID ILMN_1651496) was 3,85, the “logFC(D142_PHE - D142_BAS) MGP” value (ProbeID ILMN_1651958) was -2,09 and the “logFC(D142_PHE - D142_BAS) PFKFB4” value (ProbeID ILMN_1653292) was 4,21. The “logFC(D142_PHE - D142_BAS) HES4” value (ProbeID ILMN_1653466) was 2,11, the “logFC(D142_PHE - D142_BAS)” value (ProbeID ILMN_1655796) was 2,37 and the “logFC(D142_PHE - D142_BAS) ELL2” value (ProbeID ILMN_1655930) was 2,00. For the same compound, the “logFC(D142_PHE - D142_BAS) PLAU” value (ProbeID ILMN_1656057, PHE vs BAS) was -3,95, the “logFC(D142_PHE - D142_BAS) DUSP5” value (ProbeID ILMN_1656501) was 3,07 and the “logFC(D142_PHE - D142_BAS) C1orf198” value (ProbeID ILMN_1657683, PHE vs BAS) was -2,35. The “logFC(D142_PHE - D142_BAS) STMN1” value (ProbeID ILMN_1657796) was -2,32, the “logFC(D142_PHE - D142_BAS) LOC728946” value (ProbeID ILMN_1657962) was -2,02 and the “logFC(D142_PHE - D142_BAS) SLC2A1” value (ProbeID ILMN_1659027) was 4,08. For the same compound, the “logFC(D142_PHE - D142_BAS) HIST2H2AA3” value (ProbeID ILMN_1659047) was 3,78, the “logFC(D142_PHE - D142_BAS) PPP1R15A” value (ProbeID ILMN_1659936) was 2,65 and the “logFC(D142_PHE - D142_BAS) C7orf68” value (ProbeID ILMN_1659990) was 3,65. For the same compound, the “logFC(D142_PHE - D142_BAS) CDCA2” value (ProbeID ILMN_1660654) was 2,66, the “logFC(D142_PHE - D142_BAS) PFKFB3” value (ProbeID ILMN_1660847) was 3,69 and the “logFC(D142_PHE - D142_BAS) LOC648210” value (ProbeID ILMN_1661346) was -2,02. The “logFC(D142_PHE - D142_BAS) DDIT4” value (ProbeID ILMN_1661599) was 4,48, the “logFC(D142_PHE - D142_BAS) TFPI” value (ProbeID ILMN_1662619) was 2,06 and the “logFC(D142_PHE - D142_BAS) CDC20” value (ProbeID ILMN_1663390, PHE vs BAS) was -2,55. The “logFC(D142_PHE - D142_BAS) MGC87042” value (ProbeID ILMN_1663575, PHE vs BAS) was -2,77, the “logFC(D142_PHE - D142_BAS) PPP1R14C” value (ProbeID ILMN_1664855) was 2,96 and the “logFC(D142_PHE - D142_BAS) ERRFI1” value (ProbeID ILMN_1665510) was 3,36. The “logFC(D142_PHE - D142_BAS) TNFRSF10D” value (ProbeID ILMN_1666022) was 3,48, the “logFC(D142_PHE - D142_BAS) CDKN3” value (ProbeID ILMN_1666305, PHE vs BAS) was -2,37 and the “logFC(D142_PHE - D142_BAS) GCNT1” value (ProbeID ILMN_1666545) was -2,01. For the same compound, the “logFC(D142_PHE - D142_BAS) IL8” value (ProbeID ILMN_1666733) was 5,35, the “logFC(D142_PHE - D142_BAS) PTGIS” value (ProbeID ILMN_1667692) was -2,11 and the “logFC(D142_PHE - D142_BAS) PPFIA4” value (ProbeID ILMN_1667791) was 2,71. For the same compound, the “logFC(D142_PHE - D142_BAS) TNS3” value (ProbeID ILMN_1667893, PHE vs BAS) was -2,61, the “logFC(D142_PHE - D142_BAS) OAF” value (ProbeID ILMN_1668345) was -2,06 and the “logFC(D142_PHE - D142_BAS) LOC732165” value (ProbeID ILMN_1668861) was 2,33. For the same compound, the “logFC(D142_PHE - D142_BAS) LOC728946” value (ProbeID ILMN_1669119, PHE vs BAS) was -2,56, the “logFC(D142_PHE - D142_BAS) ILF3” value (ProbeID ILMN_1669584) was -2,03 and the “logFC(D142_PHE - D142_BAS) CKB” value (ProbeID ILMN_1671478) was 2,73. For the same compound, the “logFC(D142_PHE - D142_BAS) ACTA2” value (ProbeID ILMN_1671703, PHE vs BAS) was -3,04, the “logFC(D142_PHE - D142_BAS) AVPI1” value (ProbeID ILMN_1671731) was 2,16 and the “logFC(D142_PHE - D142_BAS) JAM2” value (ProbeID ILMN_1672350) was 2,37. The “logFC(D142_PHE - D142_BAS) KISS1R” value (ProbeID ILMN_1673521) was 3,05, the “logFC(D142_PHE - D142_BAS) TFRC” value (ProbeID ILMN_1674243) was 2,40 and the “logFC(D142_PHE - D142_BAS) ANGPTL4” value (ProbeID ILMN_1674376) was 2,49. For the same compound, the “logFC(D142_PHE - D142_BAS) MYL9” value (ProbeID ILMN_1675062) was -2,11, the “logFC(D142_PHE - D142_BAS) MT3” value (ProbeID ILMN_1675947) was 4,91 and the “logFC(D142_PHE - D142_BAS) MSRB3” value (ProbeID ILMN_1676088, PHE vs BAS) was -2,43. For the same compound, the “logFC(D142_PHE - D142_BAS) INSIG2” value (ProbeID ILMN_1676629) was 2,16, the “logFC(D142_PHE - D142_BAS) TNFRSF11B” value (ProbeID ILMN_1676663, PHE vs BAS) was -3,04 and the “logFC(D142_PHE - D142_BAS) YEATS2” value (ProbeID ILMN_1676899) was 2,21. For the same compound, the “logFC(D142_PHE - D142_BAS) PTGS2” value (ProbeID ILMN_1677511) was 2,13, the “logFC(D142_PHE - D142_BAS) CHN1” value (ProbeID ILMN_1678493, PHE vs BAS) was -2,73 and the “logFC(D142_PHE - D142_BAS) THBS2” value (ProbeID ILMN_1678842) was -2,24. The “logFC(D142_PHE - D142_BAS) SLC3A2” value (ProbeID ILMN_1679041) was 2,15, the “logFC(D142_PHE - D142_BAS) CLK1” value (ProbeID ILMN_1679727) was 2,72 and the “logFC(D142_PHE - D142_BAS) MAFF” value (ProbeID ILMN_1680139) was 3,87. For the same compound, the “logFC(D142_PHE - D142_BAS) C5orf13” value (ProbeID ILMN_1680738, PHE vs BAS) was -2,41, the “logFC(D142_PHE - D142_BAS) GPRC5A” value (ProbeID ILMN_1682599) was 4,51 and the “logFC(D142_PHE - D142_BAS) IER3” value (ProbeID ILMN_1682717) was 2,62. The “logFC(D142_PHE - D142_BAS) RRAD” value (ProbeID ILMN_1683179) was 2,75, the “logFC(D142_PHE - D142_BAS) LOC286016” value (ProbeID ILMN_1684114) was 2,09 and the “logFC(D142_PHE - D142_BAS) GPT2” value (ProbeID ILMN_1684158) was 2,19. The “logFC(D142_PHE - D142_BAS) COL16A1” value (ProbeID ILMN_1684554) was -2,06, the “logFC(D142_PHE - D142_BAS) ASAP3” value (ProbeID ILMN_1685441, PHE vs BAS) was -2,35 and the “logFC(D142_PHE - D142_BAS) INHBB” value (ProbeID ILMN_1685714) was 3,60. For the same compound, the “logFC(D142_PHE - D142_BAS) TOP2A” value (ProbeID ILMN_1686097, PHE vs BAS) was -3,07, the “logFC(D142_PHE - D142_BAS) THBS1” value (ProbeID ILMN_1686116, PHE vs BAS) was -3,00 and the “logFC(D142_PHE - D142_BAS) VCAN” value (ProbeID ILMN_1687301, PHE vs BAS) was -2,38. The “logFC(D142_PHE - D142_BAS) BAALC” value (ProbeID ILMN_1687751) was -2,07, the “logFC(D142_PHE - D142_BAS) COLEC12” value (ProbeID ILMN_1689088, PHE vs BAS) was -3,75 and the “logFC(D142_PHE - D142_BAS) CXCL12” value (ProbeID ILMN_1689111, PHE vs BAS) was -3,44. The “logFC(D142_PHE - D142_BAS) NIPA1” value (ProbeID ILMN_1689274) was 2,08, the “logFC(D142_PHE - D142_BAS) STAT1” value (ProbeID ILMN_1690105) was -2,04 and the “logFC(D142_PHE - D142_BAS) PDLIM7” value (ProbeID ILMN_1690125, PHE vs BAS) was -2,57. The “logFC(D142_PHE - D142_BAS) STAT2” value (ProbeID ILMN_1690921) was -2,24, the “logFC(D142_PHE - D142_BAS) STAT1” value (ProbeID ILMN_1691364, PHE vs BAS) was -2,77 and the “logFC(D142_PHE - D142_BAS) MYLK” value (ProbeID ILMN_1691476, PHE vs BAS) was -3,27. The “logFC(D142_PHE - D142_BAS) STC2” value (ProbeID ILMN_1691884) was 3,81, the “logFC(D142_PHE - D142_BAS) KLHL21” value (ProbeID ILMN_1692785) was 2,54 and the “logFC(D142_PHE - D142_BAS) PSAT1” value (ProbeID ILMN_1692938) was 2,74. For the same compound, the “logFC(D142_PHE - D142_BAS) P4HA1” value (ProbeID ILMN_1693334) was 3,46, the “logFC(D142_PHE - D142_BAS) MAP2K1” value (ProbeID ILMN_1694240) was 2,11 and the “logFC(D142_PHE - D142_BAS) PANX2” value (ProbeID ILMN_1694810) was 2,42. For the same compound, the “logFC(D142_PHE - D142_BAS) KIF20A” value (ProbeID ILMN_1695658, PHE vs BAS) was -3,25, the “logFC(D142_PHE - D142_BAS) DDIT4L” value (ProbeID ILMN_1696537) was -2,12 and the “logFC(D142_PHE - D142_BAS) VARS” value (ProbeID ILMN_1696601) was -2,08. For the same compound, the “logFC(D142_PHE - D142_BAS) TNFRSF10B” value (ProbeID ILMN_1699265) was 2,54 and the “logFC(D142_PHE - D142_BAS)” value (ProbeID ILMN_1699644) was 2,20.
